Two compounds from patent US20250186323A1, “COMPOSITION FOR SKIN WHITENING COMPRISING CARVEDILOL” (GMEX (GLOBAL MEDICAL XYNAPSE), priority 2020, published 2025) can be followed below.

SMILES strings stand for the structures.

For data set [1], the system named is ex-vivo model of human skin tissue. Put plainly: Ex-vivo human skin tissue model stimulated by UV irradiation. An excerpt:
To examine adaptation in actual clinical practice, an ex-vivo model of human skin tissue was stimulated by UV irradiation to induce melanin synthesis, and treated with carvedilol and cultured, and then a fragment was formed and subjected to Fontana-Masson staining.

Data set [2] deals with normal human melanocytes (NHMs). Nature of the data set: Melanin production (melanogenesis activity) in NHMs. The format is cell-based. The following applies: carvedilol 2-10 μM, 5 days (FIG. 1B). Here is the method: (§1) NHMs were treated with carvedilol at each concentration of 2 μM, 4 μM, 6 μM, 8 μM and 10 μM, cultured for 5 days, and then a cell growth rate, melanogenesis activity, tyrosinase activity, and the expression of a melanin synthesis-related protein were confirmed.

Data set [3] deals with cAMP/PKA/CREB signaling pathway. Nature of the data set: Phospho-CREB and phospho-ERK expression in FSK-stimulated NHMs. As to conditions: over time (FIG. 1D). It counts as cell-based, human. Here is the method: After NHMs were stimulated with FSK and treated with carvedilol, the expression levels of phospho-CREB and phospho-ERK were measured, and an intracellular signaling pathway which regulates MITF transcription was investigated.

The test system of data set [4] is melanin synthesis-related protein. Nature of the data set: Expression of melanin synthesis-related protein in NHMs. As to conditions: according to carvedilol treatment time (FIG. 1D). The format is cell-based, human. From the text:
[…], and then a cell growth rate, melanogenesis activity, tyrosinase activity, and the expression of a melanin synthesis-related protein were confirmed.

Data set [5] concerns normal human melanocytes (NHMs). Nature of the data set: Cell growth rate in normal human melanocytes treated with carvedilol. It counts as cell-based. The following applies: cultured for 5 days (FIG. 1A). Here is the method:
as §1

The subject of another data set is FSK-stimulated NHMs. Nature of the data set: Melanin production in FSK-stimulated NHMs. The format is cell-based, human. As to conditions: NHMs after FSK treatment (FIG. 3A).
Another data set deals with MITF. Nature of the data set: MITF mRNA expression in NHMs. The format is cell-based, human.
The subject of the next data set is tyrosinase. Put plainly: Tyrosinase activity in NHMs. The following applies: carvedilol 2-10 μM, 5 days (FIG. 1C). It counts as cell-based, human. How it is done: as §1
Data set [6] has as its system mouse melanocytes (mel-ab). Nature of the data set: Cell growth rate in mouse melanocytes (mel-ab). The format is cell-based. As to conditions: up to 8 μM carvedilol (FIG. 2A). An excerpt: (§2) In addition to the result of Example 1 showing whitening activity in NHMs, the melanin inhibitory effect was confirmed by treating mouse melanocytes (mel-ab) with carvedilol.
Data set [7] relates to mouse melanocytes (mel-ab). Nature of the data set: Melanin production in mouse melanocytes (mel-ab). It counts as cell-based. As to conditions: carvedilol by concentration (FIG. 2B).
Description: as §2

On to `COc1ccccc1OCCNCC(O)COc1cccc2[nH]c3ccccc3c12` (centres unmarked) [carvedilol], for which the “melanosome level (Fontana-Masson staining)” value in data set [1] (UV-irradiated ex-vivo human skin, carvedilol treated (FIG. 4A)) is “melanosome reduction”. In addition, the “melanin index (proportion of Fontana-Masson-stained region)” value in [1] (UV-irradiated ex-vivo human skin, carvedilol treated (FIG. 4B)) is recorded as “decrease”. Also, in data set [1] (UV-irradiated ex-vivo human skin, increased by UVR (FIG. 4C)), the “melanin synthesis-related enzymes such as tyrosinase, TRP1 and DCT” value is listed as “reduced”. The “number of Melan-A (+) cells (melanocytes)” value in [1] (ex-vivo human skin, compared to UVR alone (FIG. 4D)) is on record as “does not affect”. In addition, in data set [1] (ex-vivo human skin, increased by UVR treatment (FIG. 4E)), the “HMB45(+) melanocytes indicating melanocyte activity” value is “reduced”. In addition, the melanin production entry in data set [2] is reported as “inhibited”; in the data set on FSK-stimulated NHMs, “inhibits melanin production”; in [7], “effect of inhibiting melanin production”. Moreover, the phospho-CREB expression result in data set [3] is recorded as “reduced over time”. Also, the phospho-ERK expression entry in data set [3] is reported as “no change”. The “expression of a melanin synthesis-related protein” value in data set [4] is on record as “tends to decrease over time”. Moreover, the cell growth rate result was “slightly reduced” in data set [5] (10 μM carvedilol), “no effect” in data set [5] (up to 8 μM carvedilol) and “no effect” in data set [6]. The “mRNA level of MITF” value in the data set on MITF (two hours after carvedilol treatment (FIG. 3C)) was “maximally decreased”. In the data set on tyrosinase, the tyrosinase activity result is recorded as “inhibited”.

On to `C=C[C@@]1(C)CC(=O)[C@]2(O)[C@@]3(C)[C@@H](O)CCC(C)(C)[C@@H]3[C@H](O)[C@H](OC(C)=O)[C@@]2(C)O1` [FSK], for which, in the data set on MITF (10 μM FSK for 2 hours (FIG. 3B)), the MITF transcription result is on record as “maximally increased”.
